Reference: patent US20250230193A1, “CYCLIC COMPOUND HAVING SELECTIVE KRAS INHIBITORY EFFECT ON HRAS AND NRAS” (CHUGAI SEIYAKU KABUSHIKI KAISHA, priority 2022, published 2025)

Assays:
[1] = biological target: GDP-bound NRAS wild-type protein (Homo sapiens, UniProt P01111); assay: Binding to NRAS by surface plasmon resonance (SPR), Single Cycle Kinetics; conditions: for NRAS/KRAS (ratio of KD value with respect to NRAS to KD value with respect to KRAS) / NRAS/KRAS (ratio of KD value for NRAS to KD value for KRAS): GDP-bound NRAS wild-type vs GDP-bound KRAS wild-type
[2] = biological target: GDP-bound HRAS wild-type protein (Homo sapiens, UniProt P01112); assay: Binding to HRAS by surface plasmon resonance (SPR), Single Cycle Kinetics; conditions: for HRAS/KRAS (ratio of KD value with respect to HRAS to KD value with respect to KRAS) / HRAS/KRAS (ratio of KD value for HRAS to KD value for KRAS): GDP-bound HRAS wild-type vs GDP-bound KRAS wild-type
[3] = SPR, GDP-bound wild-type proteins

Sequence of GDP-bound HRAS wild-type protein (P01112 whole entry): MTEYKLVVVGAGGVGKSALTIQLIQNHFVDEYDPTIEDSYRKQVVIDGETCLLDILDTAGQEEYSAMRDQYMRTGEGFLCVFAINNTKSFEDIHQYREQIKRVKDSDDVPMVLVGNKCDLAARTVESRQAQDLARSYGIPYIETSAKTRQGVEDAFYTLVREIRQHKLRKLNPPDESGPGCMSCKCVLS
Sequence of GDP-bound NRAS wild-type protein (P01111 whole entry): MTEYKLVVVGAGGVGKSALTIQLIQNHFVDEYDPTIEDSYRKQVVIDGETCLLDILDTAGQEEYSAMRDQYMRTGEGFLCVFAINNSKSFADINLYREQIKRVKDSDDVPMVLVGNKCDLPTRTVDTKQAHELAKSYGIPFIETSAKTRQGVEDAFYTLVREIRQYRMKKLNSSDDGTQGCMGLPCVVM

CCC[C@H]1C(=O)N[C@@H]([C@@H](C)CC)C(=O)N2CCC[C@H]2C(=O)N(C)[C@H]2C/C=C\CCN(C2=O)[C@@H](Cc2ccc(C(F)F)cc2)C(=O)N(C)CC(=O)N[C@@H](CCc2ccc(Cl)c(Cl)c2)C(=O)N2C[C@H](OCC)C[C@H]2C(=O)NC2(CC(C)(C)C2)C(=O)N(C)[C@@H](C(CC)CC)C(=O)N(C)[C@H](C(=O)N(C)C)CC(=O)N1C [PP2637]
NRAS/KRAS (ratio of KD value with respect to GDP-bound NRAS wild-type protein to KD value with respect to KRAS) ([1]; class symbols): AA (a compound having 20 or more is denoted as AA)
HRAS/KRAS (ratio of KD value with respect to GDP-bound HRAS wild-type protein to KD value with respect to KRAS) ([2]; class symbols): A (a compound having 10 or more and less than 20 is denoted as A)

CCC[C@H]1C(=O)N[C@@H](CC(C)C)C(=O)N2C[C@@H](OC)C[C@H]2C(=O)N(C)[C@H]2C/C=C\CCN(C2=O)[C@@H](Cc2ccc(C)cc2)C(=O)N(C)CC(=O)N[C@@H](CCc2cc(F)c(C(F)(F)F)c(F)c2)C(=O)N2C[C@H](OCC)C[C@H]2C(=O)NC2(CC(C)(C)C2)C(=O)N(C)[C@@H](C2CCCC2)C(=O)N(C)[C@H](C(=O)N(C)C)CC(=O)N1C [PP2553]
NRAS/KRAS (ratio of KD value with respect to GDP-bound NRAS wild-type protein to KD value with respect to KRAS) ([1]; class symbols): A (a compound having 10 or more and less than 20 is denoted as A)
HRAS/KRAS (ratio of KD value with respect to GDP-bound HRAS wild-type protein to KD value with respect to KRAS) ([2]; class symbols): B (a compound having 3 or more and less than 10 is denoted as B)

CCC[C@H]1C(=O)N[C@@H]([C@@H](C)CC)C(=O)N2CCC[C@H]2C(=O)N(C)[C@H]2C/C=C\CCN(C2=O)[C@@H](Cc2ccc(C(F)(F)F)cc2)C(=O)N(C)CC(=O)N[C@@H](CCc2ccc(C(F)(F)F)c(OC)c2)C(=O)N2C[C@H](OCC)C[C@H]2C(=O)N(C)C2(CCC2)C(=O)N(C)[C@@H](C2CCCC2)C(=O)N(C)[C@H](C(=O)N2CCCC2)CC(=O)N1C [PP3101]
NRAS/KRAS (ratio of KD value with respect to GDP-bound NRAS wild-type protein to KD value with respect to KRAS) [1, 3]: A (a compound having 10 or more and less than 20 is denoted as A)
HRAS/KRAS (ratio of KD value with respect to GDP-bound HRAS wild-type protein to KD value with respect to KRAS) [2, 3]: A (a compound having 10 or more and less than 20 is denoted as A)

CC[C@H](C)[C@@H]1NC(=O)[C@H](CC(C)C)N(C)C(=O)C[C@@H](C(=O)N2CCOCC2)N(C)C(=O)[C@H](C2CCCC2)N(C)C(=O)C2(CCC2)NC(=O)[C@@H]2[C@@H](OCC3CC3)CCN2C(=O)[C@H](CCc2cc(F)c(C(F)(F)F)c(F)c2)NC(=O)CN(C)C(=O)[C@H](Cc2ccc(C(F)(F)F)cc2)N2CCCCC[C@@H](C2=O)N(C)C(=O)CN(C)C1=O [PP1010]
NRAS/KRAS (ratio of KD value with respect to NRAS to KD value with respect to KRAS) ([1]; SPR): B (a compound having 3 or more and less than 10 is denoted as B)
HRAS/KRAS (ratio of KD value with respect to HRAS to KD value with respect to KRAS) ([2]; SPR): B (a compound having 3 or more and less than 10 is denoted as B)

CCC[C@H]1C(=O)N[C@@H]([C@@H](C)CC)C(=O)N(CCC)CC(=O)N(C)[C@H]2C/C=C\CCN(C2=O)[C@@H](Cc2ccc(C(F)(F)F)cc2)C(=O)N(C)CC(=O)N[C@@H](CCc2cc(F)c(C(F)(F)F)c(F)c2)C(=O)N2C[C@H](OCC)C[C@H]2C(=O)NC2(CCC2)C(=O)N(C)[C@@H](C2CCCC2)C(=O)N(C)[C@H](C(=O)N(C)C)CC(=O)N1C [PP1767]
NRAS/KRAS (ratio of KD value for NRAS to KD value for KRAS) ([1]; SPR): A (a compound having 10 or more and less than 20 is denoted as A)
HRAS/KRAS (ratio of KD value for HRAS to KD value for KRAS) ([2]; SPR): B (a compound having 3 or more and less than 10 is denoted as B)

CCC[C@H]1C(=O)N[C@@H]([C@@H](C)CC)C(=O)N(C)CC(=O)N(C)[C@H]2C/C=C\CCN(C2=O)[C@@H](Cc2ccc(C(F)(F)F)cc2)C(=O)N(C)CC(=O)N[C@@H](CCc2cc(F)c(C(F)(F)F)c(F)c2)C(=O)N2C[C@H](OCC)C[C@H]2C(=O)NC2(CC(C)(C)C2)C(=O)N(C)[C@@H](C2CCCC2)C(=O)N(C)[C@H](C(=O)N(C)CC)CC(=O)N1C [PP1646]
NRAS/KRAS (ratio of KD value for NRAS to KD value for KRAS) ([1]; SPR): A (a compound having 10 or more and less than 20 is denoted as A)
HRAS/KRAS (ratio of KD value for HRAS to KD value for KRAS) ([2]; SPR): A (a compound having 10 or more and less than 20 is denoted as A)

CCCO[C@@H]1CCN2C(=O)[C@H](CCc3cc(F)c(C(F)(F)F)c(F)c3)NC(=O)CN(C)C(=O)[C@H](Cc3ccc(C(F)(F)F)cc3)N3CCCC[C@@H](C3=O)N(C)C(=O)CN(C)C(=O)[C@H]([C@@H](C)CC)NC(=O)[C@H](CC(C)C)N(C)C(=O)C[C@@H](C(=O)N3CCOCC3)N(C)C(=O)[C@H](C3CCCC3)N(C)C(=O)C3(CCC3)NC(=O)[C@H]12 [PP1080]
NRAS/KRAS (ratio of KD value with respect to NRAS to KD value with respect to KRAS) ([1]; SPR): B (a compound having 3 or more and less than 10 is denoted as B)
HRAS/KRAS (ratio of KD value with respect to HRAS to KD value with respect to KRAS) ([2]; SPR): B (a compound having 3 or more and less than 10 is denoted as B)

CCO[C@@H]1C[C@H]2C(=O)NC3(CCC3)C(=O)N(C)[C@@H](C3CCCC3)C(=O)N(C)[C@H](C(=O)N(C)C)CC(=O)N(C)[C@@H](CC)C(=O)N[C@@H]([C@@H](C)CC)C(=O)N(C)CC(=O)N(C)[C@H]3CCCCCN(C3=O)[C@@H](Cc3ccc4ccsc4c3)C(=O)N(C)CC(=O)N[C@@H](CCc3cc(F)c(C(F)(F)F)c(F)c3)C(=O)N2C1 [PP0910]
NRAS/KRAS (ratio of KD value with respect to NRAS to KD value with respect to KRAS) ([1]; SPR): B (a compound having 3 or more and less than 10 is denoted as B)
HRAS/KRAS (ratio of KD value with respect to HRAS to KD value with respect to KRAS) ([2]; SPR): B (a compound having 3 or more and less than 10 is denoted as B)
